Data published in patent US5051132A, “Lyophilized preparation of 6-(3-dimethylaminopropionyl)forskolin” (priority 1989, dated 1991).

Experiment: Stability and solubility of 6-(3-dimethylaminopropionyl)forskolin in aqueous solution
Format: physicochemical

## C=CC1(C)CC(=O)C2(O)C(C)(O1)C(OC(C)=O)C(OC(=O)CCN(C)C)C1C(C)(C)CCC(O)C12C (centres unmarked) [6-(3-dimethylaminopropionyl)forskolin]
Aqueous solution
  stability in the state of aqueous solution: unstable in the state of aqueous solution
pH about 3 to about 6
  stability and solubility in the pH range of about 3 to about 6: keeps stable and exhibits a good solubility
